Where a name gives a salt, the structure may show the parent alone.
Biological target: T1, PAF receptor (Oryctolagus cuniculus, UniProt G1TEI7)
T1 construct: platelet membranes were prepared by centrifugation and washing; tissue Pel-Freez (Rogers, AR); host or cells: rabbit blood platelets (membranes prepared from citrated whole rabbit blood)
Assay: PAF receptor binding assay: inhibition of specific [^3 H]C18 -PAF binding to rabbit platelet membranes
Conditions: not given

T1 sequence (G1TEI7 1-342): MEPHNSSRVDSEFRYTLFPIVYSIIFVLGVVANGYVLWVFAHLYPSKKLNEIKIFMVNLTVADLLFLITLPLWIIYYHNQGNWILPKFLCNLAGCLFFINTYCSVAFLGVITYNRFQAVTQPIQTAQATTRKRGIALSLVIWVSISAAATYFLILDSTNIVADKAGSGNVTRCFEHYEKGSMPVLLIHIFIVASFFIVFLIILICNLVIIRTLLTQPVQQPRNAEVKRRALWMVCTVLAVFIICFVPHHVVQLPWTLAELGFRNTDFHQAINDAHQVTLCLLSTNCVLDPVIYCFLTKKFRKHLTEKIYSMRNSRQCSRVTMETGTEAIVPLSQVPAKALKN

Structure (SMILES) | inhibition at 100 µM | Ki | inhibition at 1 µM
Cc1nc2ccn(Cc3ccc(C(=O)c4cn(C(=O)N(C)C)c5ccccc45)cc3)cc-2n1 [Example 16, 1-N,N-Dimethylcarbamoyl-3-[4-(5H-2-methylimidazo[4.5-c]pyrid-5-ylmethyl)benzoyl]indole] | 18% |  | 
Cc1nc2cnccc2n1-c1ccc(C(=O)c2cn(C(=O)N(C)C)c3cc(-c4ccc(F)cc4)ccc23)cc1 [Example 10, 1-N,N-Dimethylcarbamoyl-6-(4-fluorophenyl)-3-[4-(1H-2-methylimidazo[4.5-c]pyrid-1-yl)benzoyl]indole] |  | 258 nM | 
Cc1nc2ccncc2n1CC(=O)c1cn(C(=O)N(C)C)c2cc(-c3ccc(F)cc3)ccc12 [Example 23, 1-N,N-Dimethylcarbamoyl-6-(4-fluorophenyl)-3-[(3H-2-methylimidazo[4.5-c]pyrid-3-yl)methylcarbonyl]indole] |  |  | 7%
Cc1nc2cnccc2n1Cc1ccc(C(=O)c2cn(C(=O)N(C)C)c3cccc(Br)c23)cc1 [Example 102, 1-N,N-Dimethylcarbamoyl-4-bromo-3-{4-[(1H-2-methylimidazo[4.5-c]pyrid-1-yl)methyl]benzoyl}indole] |  | 10 nM | 
Cc1nc2ccncc2n1Cc1ccc(C(=O)c2cn(C(=O)N(C)C)c3cc(-c4ccc(F)cc4)ccc23)cc1 [Example 7, 1-N,N-Dimethylcarbamoyl-6-(4-fluorophenyl)-3-{4-[(3H-2-methylimidazo[4.5-c]pyrid-3-yl)methyl]benzoyl}indole] |  | 700 nM | 
Cc1nc2ncccc2n1Cc1ccc(C(=O)c2cn(C(=O)N(C)C)c3ccccc23)cc1 [Example 28, 1-N,N-Dimethylcarbamoyl-3-{4-[(1H-2-methylimidazo[4.5-b]pyrid-1-yl)methyl]benzoyl}indole] |  | 87 nM | 
Cc1nc2cnccc2n1Cc1cccc(C(=O)c2cn(C(=O)N(C)C)c3cc(-c4ccc(F)cc4)ccc23)c1 [Example 12, 1-N,N-Dimethylcarbamoyl-6-(4-fluorophenyl)-3-{3-[(1H-2-methylimidazo[4.5-c]pyrid-1-yl)methyl]benzoyl}indole] |  | 140 nM | 
COC(=O)c1cccc2c1c(C(=O)c1ccc(C(C)n3c(C)nc4cnccc43)cc1)cn2C(=O)N(C)C (centres unmarked) [Example 156, 1-N,N-Dimethylcarbamoyl-4-methoxycarbonyl-3-{4-[1-(1H-2-methylimidazo[4.5-c]pyrid-1-yl)eth-1-yl]benzoyl}indole] |  | 19 nM | 
C#Cc1cccc2c1c(C(=O)c1ccc(Cn3c(C)nc4cnccc43)cc1)cn2C(=O)N(C)C [Example 107, 1-N,N-Dimethylcarbamoyl-4-ethynyl-3-{4-[(1H-2-methylimidazo[4.5-c]pyrid-1-yl)methyl]benzoyl}indole] |  | 0.6 nM | 
COC(=O)c1cccc2c1c(C(=O)c1ccc(Cn3c(C)nc4cnccc43)cc1)cn2CC(=O)C(C)(C)C [Example 135, 1-(1-Pinacolyl)4-methoxycarbonyl-3-{4-[(1H-2-methylimidazo[4.5-c]pyrid-1-yl)methyl]benzoyl}indole] |  | 1.3 nM | 
CN(C)C(=O)n1cc(C(=O)c2ccc(Cn3c(-c4ccccc4)nc4cnccc43)cc2)c2ccccc21 [Example 32] |  |  | 10%
COC(=O)c1cccc2c1c(C(=O)c1ccc(Cn3c(C)nc4cnccc43)cc1)cn2S(=O)(=O)N(C)C [Example 131, 1-N,N-Dimethylsulfamoyl-4-methoxycarbonyl-3-{4-[(1H-2-methylimidazo[4.5-c]pyrid-1-yl)methyl]benzoyl}indole] |  | 4.7 nM | 
CCOCCn1cc(C(=O)c2ccc(Cn3c(C)nc4cnccc43)cc2)c2c(Cl)cccc21 [Example 138, 1-(2-Ethoxyethyl)-4-chloro-3-{4-[(1H-2-methylimidazo[4.5-c]pyrid-1-yl)methyl]benzoyl}indole] |  | 2.2 nM | 
Cc1nc2cnccc2n1CC(=O)c1cn(C(=O)N(C)C)c2ccccc12 [Example 26, 1-N,N-Dimethylcarbamoyl-3-[(1H-2-methylimidazo[4.5-c]pyrid-1-yl)methylcarbonyl]indole] |  |  | 7%
Cc1nc2cnccc2n1Cc1ccc(C(=O)c2cn(C(=O)N(C)C)c3cccc(C(=O)N(C)C)c23)cc1 [Example 112, 1,4-di-N,N-Dimethylcarbamoyl-3-{4-[(1H-2-methylimidazo[4.5-c]pyrid-1-yl)methyl]benzoyl}indole] |  | 150 nM | 
Cc1nc2cccnc2n1Cc1ccc(C(=O)c2cn(C(=O)N(C)C)c3ccccc23)cc1 [Example 27, 1-N,N-Dimethylcarbamoyl-3-{4-[(3H-2-methylimidazo[4.5-b]pyrid-3-yl)methyl]benzoyl}indole] |  | 160 nM | 
Cc1nc2cnccc2n1-c1ccc(C(=O)c2cn(C(=O)N(C)C)c3ccccc23)cc1 [Example 22, 1-N,N-Dimethylcarbamoyl-3-{4-[(1H-2-methylimidazo[4.5-c]pyrid-1-yl)]benzoyl}indole] |  | 146 nM | 
CCc1cccc2c1c(C(=O)c1ccc(Cn3c(C)nc4cnccc43)cc1)cn2C(=O)N(C)C [Example 143] |  | 0.9 nM | 
Cc1cccc2c1c(C(=O)c1ccc(Cn3c(C)nc4cnccc43)cc1)cn2C(=O)N(C)C [Example 122, 1-N,N-Dimethylcarbamoyl-4-methyl-3-(4-[(1H-2-methylimidazo[4.5-c]pyrid-1-yl)methyl]benzoyl}indole] |  | 0.8 nM | 
CN(C)C(=O)n1cc(C(=O)c2ccc(Cn3c(C(F)(F)F)nc4cnccc43)cc2)c2ccccc21 [Example 29] |  | 494 nM | 
CC(C)c1nc2cnccc2n1Cc1ccc(C(=O)c2cn(C(=O)N(C)C)c3ccccc23)cc1 [Example 31] |  | 44 nM | 
Cc1nc2cnccc2n1Cc1ccc(C(=O)c2cn(C(=O)N(C)C)c3cccc(C#N)c23)cc1 [Example 150, 1-N,N-Dimethylcarbamoyl-4-cyano-3-{4-[(1H-2-methylimidazo[4.5-c]pyrid-1-yl)methyl]benzoyl}indole hydrochloride] |  | 40 nM | 
Cc1nc2cnccc2n1Cc1ccc(C(=O)c2cn(C(=O)N(C)C)c3ccccc23)cc1 [Example 14, 1-N,N-Dimethylcarbamoyl-3-{4-[(1H-2-methylimidazo[4.5-c]pyrid-1-yl)methyl]benzoyl}indole] |  | 5 nM | 
Cc1nc2ccncc2n1Cc1cccc(C(=O)c2cn(C(=O)N(C)C)c3ccccc23)c1 [Example 20, 1-N,N-Dimethylcarbamoyl-3-{3-[(3H-2-methylimidazo[4.5-c]pyrid-3-yl)methyl]benzoyl}indole] | 26% |  | 
Cc1nc2ccccc2n1Cc1ccc(C(=O)c2cn(C(=O)N(C)C)c3cc(-c4ccc(F)cc4)ccc23)cc1 [Example 2, 1-N,N-Dimethylcarbamoyl-6-(4-fluorophenyl)-3-{4-[(1H-2-methylbenzimidazolyl)methyl]benzoyl}indole] |  | 56 nM | 
CCc1nc2cnccc2n1Cc1ccc(C(=O)c2cn(C(=O)N(C)C)c3ccccc23)cc1 [Example 33] |  | 29 nM | 
COC(=O)c1cccc2c1c(C(=O)c1ccc(Cn3c(C(F)(F)F)nc4ccccc43)cc1)cn2C(=O)N(C)C [Example 162, 1-N,N-Dimethylcarbamoyl-4-methoxycarbonyl-3-{4-[(1H-2-(trifluoromethyl)benzimidazolyl)methyl]benzoyl}indole] |  | 14 nM | 

Same assay, conditions: Table 1; @ 1.0 μM; read-out: % Inhibition

Structure (SMILES) | inhibition at 1 µM
Cc1nc2ccncc2n1CC(=O)c1cn(C(=O)N(C)C)c2ccccc12 [Example 25, 1-N,N-Dimethylcarbamoyl-3-[(3H-2-methylimidazo[4.5-c]pyrid-3-yl)methylcarbonyl]indole] | 14%

Same assay, conditions: Table 1; rabbit platelet membranes, 0.6 nM [^3 H]C18 -PAF, 60 minutes at room temperature; Ki by Cheng and Prusoff

Structure (SMILES) | Ki
COC(=O)c1cccc2c1c(C(=O)c1ccc(Cn3c(C)nc4c(Cl)nccc43)cc1)cn2C(=O)N(C)C [Example 174, 1-N,N-Dimethylcarbamoyl-4-methoxycarbonyl-3-{4-[(4-chloro-1H-2-methylimidazo[4.5-c]pyrid-1-yl)methyl]benzoyl}indole] | 4 nM

Same assay, conditions: Table 1; rabbit platelet membranes, 0.6 nM [^3 H]C18 -PAF, 60 minutes at room temperature; Ki by Cheng and Prusoff; read-out: Ki

Structure (SMILES) | Ki
COC(=O)c1ccc(C(=O)OC)c2c(C(=O)c3ccc(Cn4c(C)nc5cnccc54)cc3)c[nH]c12 [Example 90, 4,7-Dimethoxycarbonyl-3-{4-[(1H-2-methylimidazo[4,5-c]pyrid-1-yl)methyl]benzoyl}indole] | 2.9 nM
Cc1nc2ccncc2n1Cc1cccc(C(=O)c2c[nH]c3ccccc23)c1 [Example 19, 3-{3-[(3H-2-Methylimidazo[4.5-c]pyrid-3-yl)methyl]benzoyl}indole] | 280 nM
COC(=O)c1cccc2c1c(S(=O)(=O)c1ccc(Cn3c(C)nc4cnccc43)cc1)cn2C(=O)N(C)C [Example 141, 1-N,N-Dimethylcarbamoyl-4-methoxycarbonyl-3-{4-[(1H-2-methylimidazo[4.5-c]pyrid-1-yl)methyl]phenylsulfonyl}indole] | 20 nM
Cc1nc2cnccc2n1CCCN(C)CC(=O)c1cn(C(=O)N(C)C)c2cc(-c3ccc(F)cc3)ccc12 [Example 95, 6-(4-Fluorophenyl)-3-{N-[3-(1H-2-methylimidazo[4.5-c]pyrid-1-yl)propyl]sarcosyl}indole-1-carboxylic acid dimethyl amide] | 130 nM
Cc1nc2cnccc2n1-c1ccc(C(=O)c2c[nH]c3cc(-c4ccc(F)cc4)ccc23)cc1 [Example 9, 6-(4-Fluorophenyl)-3-[4-(1H-2-methylimidazo[4.5-c]pyrid-1-yl)benzoyl]indole] | 60 nM
Cc1nc2ccncc2n1Cc1ccc(C(=O)c2c[nH]c3cc(-c4ccc(F)cc4)ccc23)cc1 [Example 6, 6-(4-Fluorophenyl)-3-{4-[(3H-2-methylimidazo[4.5-c]pyrid-3-yl)methyl]benzoyl}indole] | 140 nM
Cc1nc2cnccc2n1Cc1ccc(C(=O)c2c[nH]c3ccccc23)cc1 [Example 13, 3-{4-[(1H-2-Methylimidazo[4.5-c]pyrid-1-yl)methyl]benzoyl}indole] | 150 nM
Cc1nc2cnccc2n1Cc1cccc(C(=O)c2c[nH]c3ccccc23)c1 [Example 17, 3-{3-[(1H-2-Methylimidazo[4.5-c]pyrid-1-yl)methyl]benzoyl}indole] | 422 nM
Cc1nc2cnccc2n1Cc1cccc(C(=O)c2c[nH]c3cc(-c4ccc(F)cc4)ccc23)c1 [Example 11, 6-(4-Fluorophenyl)-3-{3-[(1H-2-methylimidazo[4.5-c]pyrid-1-yl)methyl]benzoyl}indole] | 86 nM

Source: patent US5486525A, “Platelet activating factor antagonists: imidazopyridine indoles” (priority 1994, dated 1996)
